According to patent publication US10946029B2, “Dry powder formulation comprising a corticosteroid and a beta-adrenergic for administration by inhalation” (CHIESI FARMACEUTICI S.p.A., priority 2012, dated 2021):

Experiments:
[1] = Specific Surface Area by BET nitrogen adsorption (Coulter SA3100); format: physicochemical; conditions: micronised beclometasone dipropionate; mean of three determinations
Protocol: Advantageously, the micronized particles of BDP have also a specific surface area comprised between 5.5 and 7.0 m^2/g, preferably between 5.9 and 6.8 m^2/g. The Specific Surface Area is determined by Brunauer-Emmett-Teller (BET) nitrogen adsorption method according to a procedure known in the art.
(§1) The particle size was determined by laser diffraction using a Malvern apparatus. The parameter taken into consideration was the VD in micron of 10%, 50% and 90% of the particles expressed as d(v,0.1), d(v, 0.5) and d(v, 0.9), respectively, which correspond to the mass diameter assuming a size independent density for the particles. The span [d(v,0.9)−d(v,0.1)]/d(v,0.5) is also reported. The Specific Surface Area (SSA) was determined by BET nitrogen adsorption using a Coulter SA3100 apparatus as a mean of three determinations.

[2] = Particle size distribution by laser diffraction (Malvern apparatus); format: physicochemical; conditions: micronised beclometasone dipropionate; for Span: [d(v,0.9)−d(v,0.1)]/d(v,0.5); for d (v, 0.1): volume diameter of 10% of the particles; for d (v, 0.5): volume diameter of 50% of the particles; for d (v, 0.9): volume diameter of 90% of the particles
Protocol: The size of the particles active is determined by measuring the characteristic equivalent sphere diameter, known as volume diameter, by laser diffraction. In the reported examples, the volume diameter has been determined using a Malvern apparatus, However, other equivalent apparatus may be used by the skilled person in the art.
as §1

For `CCC(=O)OCC(=O)[C@@]1(OC(=O)CC)[C@@H](C)C[C@H]2[C@@H]3CCC4=CC(=O)C=C[C@]4(C)[C@@]3(Cl)[C@@H](O)C[C@@]21C` [Batch 2, beclometasone dipropionate], the SSA [1] was 5.90 m^2/g, the Span [2] was 1.31 and the “d (v, 0.1)” value [2] was 0.96 μm. For the same molecule, the “d (v, 0.5)” value [2] was 1.81 μm and the “d (v, 0.9)” value [2] was 3.33 μm.

In the case of `CCC(=O)OCC(=O)[C@@]1(OC(=O)CC)[C@@H](C)C[C@H]2[C@@H]3CCC4=CC(=O)C=C[C@]4(C)[C@@]3(Cl)[C@@H](O)C[C@@]21C` [Batch 1, beclometasone dipropionate], the SSA [1] is reported as 6.61 m^2/g, the Span [2] is reported as 1.41 and the “d (v, 0.1)” value [2] is reported as 0.86 μm. For the same molecule, the “d (v, 0.5)” value [2] was 1.63 μm and the “d (v, 0.9)” value [2] was 3.15 μm.

With `CCC(=O)OCC(=O)[C@@]1(OC(=O)CC)[C@@H](C)C[C@H]2[C@@H]3CCC4=CC(=O)C=C[C@]4(C)[C@@]3(Cl)[C@@H](O)C[C@@]21C` [Batch 3, beclometasone dipropionate] the SSA [1] was 6.12 m^2/g, the Span [2] was 1.19 and the “d (v, 0.1)” value [2] was 0.95 μm. For the same molecule, the “d (v, 0.5)” value [2] was 1.71 μm and the “d (v, 0.9)” value [2] was 2.97 μm.

For `CCC(=O)OCC(=O)[C@@]1(OC(=O)CC)[C@@H](C)C[C@H]2[C@@H]3CCC4=CC(=O)C=C[C@]4(C)[C@@]3(Cl)[C@@H](O)C[C@@]21C` [Batch 4, beclometasone dipropionate], the SSA [1] was 6.28 m^2/g, the Span [2] was 1.54 and the “d (v, 0.1)” value [2] was 0.91 μm. For the same molecule, the “d (v, 0.5)” value [2] was 1.84 μm and the “d (v, 0.9)” value [2] was 3.76 μm.
